Measurements from PubChem BioAssay AID1963862 (Molecular Pharmacology Branch, DTP, NCI, 2024).

System: KRAS patient-derived spheroids with HUVEC/MSC, viability
Assay: Anticancer human tumor 941728-121-R-J1-PDC patient-derived lung adenocarcinoma cell line growth inhibition [KRAS2]
Settings: for viability, T/C: stronger effect = lower value; for IC50: curve of first compound
How it was run: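 KRAS-mutant tumor cells were grown as spheroids with HUVEC endothelial cells and human MSCs as stroma. Targeted agents were tested alone and with KRAS pathway inhibitors. Doses started at or near clinical Cmax, or 10 microM, descending half-log.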

[1] = second compound 0.1 µM, first compound 0.01 µM
[2] = second compound 0.1 µM, first compound 0.0316 µM
[3] = second compound 0.1 µM, first compound 0.1 µM
[4] = second compound 0.1 µM, first compound 0.316 µM
[5] = second compound 0.1 µM, first compound 1 µM
[6] = second compound 0.1 µM, first compound 3.16 µM
[7] = second compound 0.316 µM, first compound 0.01 µM
[8] = second compound 0.316 µM, first compound 0.0316 µM
[9] = second compound 0.316 µM, first compound 0.1 µM
[10] = second compound 0.316 µM, first compound 0.316 µM
[11] = second compound 0.316 µM, first compound 1 µM
[12] = second compound 0.316 µM, first compound 3.16 µM
[13] = second compound 1 µM, first compound 0.01 µM
[14] = second compound 1 µM, first compound 0.0316 µM
[15] = second compound 1 µM, first compound 0.1 µM
[16] = second compound 1 µM, first compound 0.316 µM
[17] = second compound 1 µM, first compound 1 µM
[18] = second compound 1 µM, first compound 3.16 µM
[19] = second compound 3.16 µM, first compound 0.01 µM
[20] = second compound 3.16 µM, first compound 0.0316 µM
[21] = second compound 3.16 µM, first compound 0.1 µM
[22] = second compound 3.16 µM, first compound 0.316 µM
[23] = second compound 3.16 µM, first compound 1 µM
[24] = second compound 3.16 µM, first compound 3.16 µM
[25] = second compound 10 µM, first compound 0.0316 µM
[26] = second compound 10 µM, first compound 0.1 µM
[27] = second compound 10 µM, first compound 0.316 µM
[28] = second compound 10 µM, first compound 1 µM
[29] = second compound 10 µM, first compound 3.16 µM
[30] = second compound 0.1 µM, first compound 10 µM
[31] = second compound 0.316 µM, first compound 10 µM
[32] = second compound 1 µM, first compound 10 µM
[33] = second compound 3.16 µM, first compound 10 µM
[34] = second compound 10 µM, first compound 10 µM
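Note: spheroids exposed to agents for seven days before readout.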

CC(=O)Nc1cccc(-n2c(=O)n(C3CC3)c(=O)c3c(Nc4ccc(I)cc4F)n(C)c(=O)c(C)c32)c1
viability, T/C (compound 0.0001 µM): 84.8% [middle of 5 runs] | viability, T/C (compound 0.000316 µM): 63.7% [middle of 5 runs] | viability, T/C (compound 0.001 µM): 53.3% [middle of 5 runs] | viability, T/C (compound 0.00316 µM): 49.9% [middle of 4 runs] | viability, T/C (compound 0.01 µM): 47.2% [middle of 5 runs] | viability, T/C (compound 0.0316 µM): 42.3% [middle of 5 runs]

CC(=O)OC12COC1CC(O)C1(C)C(=O)C(O)C3=C(C)C(OC(=O)C(O)C(NC(=O)OC(C)(C)C)c4ccccc4)CC(O)(C(OC(=O)c4ccccc4)C21)C3(C)C (stereo unspecified) + COc1cc2nc(C)nc(NC(C)c3cc(N)cc(C(F)(F)F)c3)c2cc1OC1CCOC1
IC50 (second compound 0.1 µM): < 10 nM | IC50 (second compound 0.316 µM): < 10 nM | IC50 (second compound 1 µM): < 10 nM | IC50 (second compound 3.16 µM): < 10 nM | IC50 (second compound 10 µM): < 10 nM | viability, T/C [1]: 37.4% | viability, T/C [2]: 41.1% | viability, T/C [3]: 41.4% | viability, T/C [4]: 44.9% | viability, T/C [5]: 41.9% | viability, T/C [6]: 42.6% | viability, T/C [7]: 38.2% | viability, T/C [8]: 39.5% | viability, T/C [9]: 36% | viability, T/C [10]: 34.5% | viability, T/C [11]: 36.9% | viability, T/C [12]: 35.5% | viability, T/C [13]: 35.8% | viability, T/C [14]: 47.8% | viability, T/C [15]: 49.6% | viability, T/C [16]: 47.3% | viability, T/C [17]: 48% | viability, T/C [18]: 36.1% | viability, T/C [19]: 33.5% | viability, T/C [20]: 31.4% | viability, T/C [21]: 32% | viability, T/C [22]: 31.7% | viability, T/C [23]: 32.7% | viability, T/C [24]: 33.3% | viability, T/C (second compound 10 µM, first compound 0.01 µM): 31.2% | viability, T/C [25]: 29.1% | viability, T/C [26]: 30% | viability, T/C [27]: 32.7% | viability, T/C [28]: 36.2% | viability, T/C [29]: 32.2%

CN(C)C/C=C/C(=O)Nc1cc2c(Nc3ccc(F)c(Cl)c3)ncnc2cc1O[C@H]1CCOC1 + C=CC(=O)N1CCN(c2nc(OCC3CCCN3C)nc3c2CCN(c2cccc4cccc(C)c24)C3)CC1CC#N
IC50 (second compound 0.0316 µM): < 0.316 nM | IC50 (second compound 0.1 µM): < 0.316 nM | IC50 (second compound 0.316 µM): < 0.316 nM | IC50 (second compound 1 µM): < 0.316 nM | IC50 (second compound 3.16 µM): < 0.316 nM | viability, T/C (second compound 0.0316 µM, first compound 0.000316 µM): 22.7% | viability, T/C (second compound 0.0316 µM, first compound 0.001 µM): 22.4% | viability, T/C (second compound 0.0316 µM, first compound 0.00316 µM): 22.2% | viability, T/C (second compound 0.0316 µM, first compound 0.01 µM): 23.3% | viability, T/C (second compound 0.0316 µM, first compound 0.0316 µM): 20.5% | viability, T/C (second compound 0.0316 µM, first compound 0.1 µM): 20.6% | viability, T/C (second compound 0.1 µM, first compound 0.000316 µM): 21.3% | viability, T/C (second compound 0.1 µM, first compound 0.001 µM): 19.3% | viability, T/C (second compound 0.1 µM, first compound 0.00316 µM): 18.8% | viability, T/C [1]: 20.1% | viability, T/C [2]: 20.4% | viability, T/C [3]: 18.6% | viability, T/C (second compound 0.316 µM, first compound 0.000316 µM): 21.1% | viability, T/C (second compound 0.316 µM, first compound 0.001 µM): 20.9% | viability, T/C (second compound 0.316 µM, first compound 0.00316 µM): 21.4% | viability, T/C [7]: 21.5% | viability, T/C [8]: 20.5% | viability, T/C [9]: 18.3% | viability, T/C (second compound 1 µM, first compound 0.000316 µM): 21.1% | viability, T/C (second compound 1 µM, first compound 0.001 µM): 21.2% | viability, T/C (second compound 1 µM, first compound 0.00316 µM): 20.9% | viability, T/C [13]: 19.1% | viability, T/C [14]: 19.2% | viability, T/C [15]: 21.2% | viability, T/C (second compound 3.16 µM, first compound 0.000316 µM): 1.16% | viability, T/C (second compound 3.16 µM, first compound 0.001 µM): 0.2% | viability, T/C (second compound 3.16 µM, first compound 0.00316 µM): 0.46% | viability, T/C [19]: 0.19% | viability, T/C [20]: 0.45% | viability, T/C [21]: 1.8%

CCNC(=O)CC1N=C(c2ccc(Cl)cc2)c2cc(OC)ccc2-n2c(C)nnc21 (stereo unspecified) + CNCc1ccccc1-c1csc(C(C)Nc2nc(C)nc3cc(OC)c(OC)cc23)c1
IC50 (second compound 0.1 µM): 64.4 nM | IC50 (second compound 0.316 µM): < 31.6 nM | IC50 (second compound 1 µM): < 31.6 nM | IC50 (second compound 3.16 µM): < 31.6 nM | IC50 (second compound 10 µM): < 31.6 nM | viability, T/C [2]: 53.8% | viability, T/C [3]: 48.9% | viability, T/C [4]: 40.2% | viability, T/C [5]: 35.5% | viability, T/C [6]: 34.1% | viability, T/C [30]: 28.6% | viability, T/C [8]: 38.7% | viability, T/C [9]: 37.1% | viability, T/C [10]: 27.8% | viability, T/C [11]: 25.8% | viability, T/C [12]: 20.6% | viability, T/C [31]: 19.8% | viability, T/C [14]: 30% | viability, T/C [15]: 27.2% | viability, T/C [16]: 20.7% | viability, T/C [17]: 17.4% | viability, T/C [18]: 12.9% | viability, T/C [32]: 11% | viability, T/C [20]: 1.35% | viability, T/C [21]: 2.8% | viability, T/C [22]: 0.83% | viability, T/C [23]: 1.53% | viability, T/C [24]: 1.46% | viability, T/C [33]: 1.72% | viability, T/C [25]: 0.51% | viability, T/C [26]: 0.89% | viability, T/C [27]: 0.25% | viability, T/C [28]: 0.86% | viability, T/C [29]: 0.86% | viability, T/C [34]: 0.53%

CC(C)NCC(C(=O)N1CCN(c2ncnc3c2C(C)CC3O)CC1)c1ccc(Cl)cc1 (stereo unspecified) + CC1OCC2(CCN(c3cnc(Sc4ccnc(N)c4Cl)c(N)n3)CC2)C1N
IC50 (second compound 0.1 µM): < 31.6 nM | IC50 (second compound 0.316 µM): < 31.6 nM | IC50 (second compound 1 µM): < 31.6 nM | IC50 (second compound 3.16 µM): < 31.6 nM | IC50 (second compound 10 µM): < 31.6 nM | viability, T/C [2]: 38.3% | viability, T/C [3]: 40.1% | viability, T/C [4]: 29.9% | viability, T/C [5]: 24.9% | viability, T/C [6]: 19.1% | viability, T/C [30]: 10.4% | viability, T/C [8]: 34% | viability, T/C [9]: 31.9% | viability, T/C [10]: 25.3% | viability, T/C [11]: 20.9% | viability, T/C [12]: 15.1% | viability, T/C [31]: 8.83% | viability, T/C [14]: 26.2% | viability, T/C [15]: 26.8% | viability, T/C [16]: 23.7% | viability, T/C [17]: 16.7% | viability, T/C [18]: 12.8% | viability, T/C [32]: 4.1% | viability, T/C [20]: 25.8% | viability, T/C [21]: 22.1% | viability, T/C [22]: 20.8% | viability, T/C [23]: 14.3% | viability, T/C [24]: 10.7% | viability, T/C [33]: 3.56% | viability, T/C [25]: 19.1% | viability, T/C [26]: 17.9% | viability, T/C [27]: 17.2% | viability, T/C [28]: 11.2% | viability, T/C [29]: 4.83% | viability, T/C [34]: 1.91%
